The subject of one assay is Bax. Nature of the assay: Western blotting analysis of Bax. Particulars: CTX-TNA2 challenged with H2O2, 24 h; 1000 nM CBD, 1 nM CBG. The assay is classed as cell-based, rat. How it is done:
[…] The stock solutions were diluted in cell medium to the point that the concentration of DMSO in the samples was less than 0.0003%. Therefore, the addition of DMSO to the control samples was not necessary.
The western blowing analysis of Bax and Cyt C was carried out as previously reported. Specifically, CTX-TNA2 lysates (20 µg) were boiled fof 5 min in sample buffer, made of tris-HCl pH 6.8, glycerol, 2-mercaptoethanol, SDS and bromophenol blue. They were then electrophoresed and transferred to nitrocellulose membranes. […] Immunoreactive bands were identified using the ECL detection system (Euroclone, Pero, Milano, Italy) and analyzed by densitometry. Densitometric values were quantified by the CHEMIDOC XRS system and expressed as Integrated Optical Intensity using the QuantiOne 1-D analysis software (Bio-rad Laboratories, Richmond, CA, USA). […] Results are expressed as the mean ± SD.

For another assay, the system named is hypothalamic 5-HT. The arrangement: method as in PMID 31941059. Particulars: cited from earlier work.
The next assay concerns rat hypothalamic neurons. The arrangement: method as in PMID 31941059. The conditions noted are these: ex vivo model, hydrogen peroxide; cited from earlier work.

Structures are written as SMILES.

In the case of `C=C(C)[C@@H]1CCC(C)=C[C@H]1c1c(O)cc(CCCCC)cc1O` [CBD, Cannabidiol], the Bax expression result with Bax is listed as “keep Bax expression at values comparable to the control sample”. In addition, the “basal hypothalamic 5-HT levels” value in the assay on hypothalamic 5-HT is reported as “stimulate basal hypothalamic 5-HT levels”.
`CCCCCc1cc(O)c(C/C=C(\C)CCC=C(C)C)c(O)c1` [CBG, cannabigerol]: the Bax expression result in the assay on Bax is “expression does not differ from the control sample”. In addition, the neuroprotection entry in the assay with rat hypothalamic neurons is “neuroprotection only at low concentrations”.

(Values after article PMC7279038, “Antioxidant and Neuroprotective Effects Induced by Cannabidiol and Cannabigerol in Rat CTX-TNA2 Astrocytes and Isolated Cortexes” (International Journal of Molecular Sciences, 2020).)
